From ChEMBL document CHEMBL2021877, “Dithiocarbamates strongly inhibit carbonic anhydrases and show antiglaucoma action in vivo” (J Med Chem, 2012)
Structures can show the parent of a compound that is named as a salt. The source made the active and inactive calls. The calls are words filed in the database; no cut-off is given here.

Experiments:
Carbonic anhydrase 9 = Carbonic anhydrase 9 (Homo sapiens, UniProt Q16790); assay: Inhibition of human CA9 pre-incubated for 15 mins by stopped-flow CO2 hydration method
Carbonic anhydrase 1 = Carbonic anhydrase 1 (Homo sapiens, UniProt P00915); assay: Inhibition of human CA1 pre-incubated for 15 mins by stopped-flow CO2 hydration method
Sequence of Carbonic anhydrase 1 (P00915 whole entry): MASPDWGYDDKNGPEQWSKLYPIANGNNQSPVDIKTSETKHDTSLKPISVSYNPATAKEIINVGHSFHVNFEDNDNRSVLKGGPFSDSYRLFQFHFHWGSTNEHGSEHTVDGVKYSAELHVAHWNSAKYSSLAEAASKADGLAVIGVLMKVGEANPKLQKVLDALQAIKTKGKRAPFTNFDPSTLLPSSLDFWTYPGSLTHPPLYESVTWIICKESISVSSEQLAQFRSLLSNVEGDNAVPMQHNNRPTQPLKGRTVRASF

Carbonic anhydrase 2 = Carbonic anhydrase 2 (Homo sapiens, UniProt P00918); assay: Inhibition of human CA2 pre-incubated for 15 mins by stopped-flow CO2 hydration method
Carbonic anhydrase 12 = Carbonic anhydrase 12 (Homo sapiens, UniProt O43570); assay: Inhibition of human CA12 pre-incubated for 15 mins by stopped-flow CO2 hydration method
Sequence of Carbonic anhydrase 12 (O43570 whole entry): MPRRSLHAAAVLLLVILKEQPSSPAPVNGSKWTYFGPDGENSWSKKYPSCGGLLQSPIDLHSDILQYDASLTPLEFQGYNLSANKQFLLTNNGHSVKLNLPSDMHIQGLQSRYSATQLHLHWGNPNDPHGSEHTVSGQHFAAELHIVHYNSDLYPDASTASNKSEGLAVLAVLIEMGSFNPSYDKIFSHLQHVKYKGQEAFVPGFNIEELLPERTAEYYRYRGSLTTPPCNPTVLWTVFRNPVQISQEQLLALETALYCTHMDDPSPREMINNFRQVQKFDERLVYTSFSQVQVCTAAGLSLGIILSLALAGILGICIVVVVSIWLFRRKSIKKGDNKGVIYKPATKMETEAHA

Oryctolagus cuniculus [1] = assay: Antiglaucoma activity in carbomer-induced glaucoma in albino rabbit assessed as reduction in intra ocular pressure dosed as 2% compound solution; assay type: functional, organism-based; conditions: Eye, TDE = time-dependent effect
Oryctolagus cuniculus [2] = assay: Antiglaucoma activity in carbomer-induced glaucoma in albino rabbit assessed as reduction in intra ocular pressure dosed as 2% compound solution measured 3 to 4 hrs post dose; assay type: functional, organism-based; conditions: Eye
Oryctolagus cuniculus [3] = assay: Antiglaucoma activity in carbomer-induced glaucoma in albino rabbit assessed as reduction in intra ocular pressure dosed as 2% compound solution measured 2 hrs post dose (vehicle treated contralateral eye Rvb = 37 to 40 mmHg); assay type: functional
Oryctolagus cuniculus [4] = assay: Antiglaucoma activity in carbomer-induced glaucoma in albino rabbit assessed as reduction in intra ocular pressure dosed as 2% compound solution measured 2 hrs post dose (vehicle treated contralateral eye Rvb = 37 to 39 mmHg); assay type: functional

SMILES	Ki (Carbonic anhydrase 9)	further results
N#CC1(c2ccccc2)CCN(C(=S)S)CC1	757 nM	–
S=C(S)NCCN1CCOCC1	4.5 nM	–
S=C(S)NCCN1CCCCC1	3.6 nM	–
CN(Cc1ccccc1)C(=S)S [SODIUM BENZYL(METHYL)CARBAMODITHIOATE]	53 nM	–
S=C(S)N1CCCC1	70.4 nM	Ki (Carbonic anhydrase 1): 0.96 nM; Ki (Carbonic anhydrase 2): 27.5 nM; Ki (Carbonic anhydrase 12): 46.1 nM
CN(C(=S)S)c1ccccc1 [SODIUM METHYL(PHENYL)CARBAMODITHIOATE]	28.2 nM	–
O=C(O)[C@@H]1CCCN1C(=S)S	4.1 nM	–
S=C([S-])N1CCOCC1.[Na+] [MORPHOLINECARBAMODITHIOATE SODIUM SALT]	6.2 nM	Activity (Oryctolagus cuniculus [1]): tde; Activity (Oryctolagus cuniculus [2]): Active; Activity (Oryctolagus cuniculus [3]): 6 mmHg
S=C(S)Nc1nccs1	12.6 nM	–
CCN(CC)C(=S)S [DITIOCARB SODIUM]	1410 nM	Ki (Carbonic anhydrase 12): 1100 nM
S=C(S)NCc1ccncc1	26 nM	–
S=C(S)NN1CCOCC1 [POTASSIUM MORPHOLINOCARBAMODITHIOATE]	29.1 nM	–
S=C([S-])N1CCN(C(=S)[S-])CC1.[Na+].[Na+] [PIPERAZINECARBAMODITHIOATE DISODIUM SALT]	37.5 nM	Activity (Oryctolagus cuniculus [1]): tde; Activity (Oryctolagus cuniculus [2]): Active; Activity (Oryctolagus cuniculus [4]): 6 mmHg
O=C(O)CNC(=S)S	57.1 nM	–
S=C(S)NCc1ccccc1 [SODIUM BENZYLCARBAMODITHIOATE]	19.2 nM	–
CN1CCN(NC(=S)S)CC1	22.1 nM	–
S=C(S)Nc1ccccc1 [TRIETHYLAMMONIUM PHENYLCARBAMODITHIOATE]	4.2 nM	–
CN(C)C(=S)S [SODIUM DIMETHYLCARBAMODITHIOATE]	714 nM	Ki (Carbonic anhydrase 1): 699 nM; Ki (Carbonic anhydrase 2): 6910 nM; Ki (Carbonic anhydrase 12): 798 nM

More lines, main results first:

Ki (Carbonic anhydrase 9)	SMILES	further results
4.3 nM	S=C(S)NCCCn1ccnc1	–
25.9 nM	CCCCN(CC)C(=S)S [ETHYLBUTYLCARBAMODITHIOATE SODIUM SALT]	–
53.8 nM	CCCN(CCC)C(=S)S [DIPROPYLCARBAMODITHIOATE SODIUM SALT]	–
27.4 nM	CCCCCCN(CCCCCC)C(=S)S [DIHEXYLCARBAMODITHIOATE SODIUM SALT]	–
50.3 nM	CCCCN(CCCC)C(=S)S [DIBUTYLCARBAMODITHIOATE SODIUM SALT]	–
4.5 nM	CC(C)CN(CC(C)C)C(=S)S [DIISOBUTYLCARBODITHIOIC ACID SODIUM SALT]	–
4.6 nM	CCC(C)NC(=S)S (racemic)	–
4.3 nM	OCCN(CCO)C(=S)S	–
27.4 nM	S=C(S)NCCN(CCNC(=S)S)CCNC(=S)S	–
